Measurements taken from patent US9737542B2, “Pyrrolotriazine kinase inhibitors” (BRISTOL-MYERS SQUIBB COMPANY, priority 2013, dated 2017).
pIC50: −log10 of the molar value.

Each compound was assayed against GST-Xa-hAAK1 (Homo sapiens (Human), UniProt Q2M2I8) (assay: AAK1 Kinase Assay). Conditions: ATP 22 μM; 3 hours at room temperature.
Type: biochemical
Description: The assays were performed in U-bottom 384-well plates. […] The reactions were initiated by the combination of bacterially expressed, GST-Xa-hAAK1 with substrates and test compounds. The reactions were incubated at room temperature for 3 hours and terminated by adding 60 μl of 35 mM EDTA buffer to each sample. The reactions were analyzed on the Caliper LabChip 3000 (Caliper, Hopkinton, Mass.) by electrophoretic separation of the fluorescent substrate and phosphorylated product. Inhibition data were calculated by comparison to EDTA quenched control reactions for 100% inhibition and vehicle-only reactions for 0% inhibition. […] Dose response curves were generated to determine the concentration required inhibiting 50% of kinase activity (IC50). Compounds were dissolved at 10 mM in dimethylsulfoxide (DMSO) and evaluated at eleven concentrations. IC50 values were derived by non-linear regression analysis.

GST-Xa-hAAK1, sequence (Q2M2I8 whole entry): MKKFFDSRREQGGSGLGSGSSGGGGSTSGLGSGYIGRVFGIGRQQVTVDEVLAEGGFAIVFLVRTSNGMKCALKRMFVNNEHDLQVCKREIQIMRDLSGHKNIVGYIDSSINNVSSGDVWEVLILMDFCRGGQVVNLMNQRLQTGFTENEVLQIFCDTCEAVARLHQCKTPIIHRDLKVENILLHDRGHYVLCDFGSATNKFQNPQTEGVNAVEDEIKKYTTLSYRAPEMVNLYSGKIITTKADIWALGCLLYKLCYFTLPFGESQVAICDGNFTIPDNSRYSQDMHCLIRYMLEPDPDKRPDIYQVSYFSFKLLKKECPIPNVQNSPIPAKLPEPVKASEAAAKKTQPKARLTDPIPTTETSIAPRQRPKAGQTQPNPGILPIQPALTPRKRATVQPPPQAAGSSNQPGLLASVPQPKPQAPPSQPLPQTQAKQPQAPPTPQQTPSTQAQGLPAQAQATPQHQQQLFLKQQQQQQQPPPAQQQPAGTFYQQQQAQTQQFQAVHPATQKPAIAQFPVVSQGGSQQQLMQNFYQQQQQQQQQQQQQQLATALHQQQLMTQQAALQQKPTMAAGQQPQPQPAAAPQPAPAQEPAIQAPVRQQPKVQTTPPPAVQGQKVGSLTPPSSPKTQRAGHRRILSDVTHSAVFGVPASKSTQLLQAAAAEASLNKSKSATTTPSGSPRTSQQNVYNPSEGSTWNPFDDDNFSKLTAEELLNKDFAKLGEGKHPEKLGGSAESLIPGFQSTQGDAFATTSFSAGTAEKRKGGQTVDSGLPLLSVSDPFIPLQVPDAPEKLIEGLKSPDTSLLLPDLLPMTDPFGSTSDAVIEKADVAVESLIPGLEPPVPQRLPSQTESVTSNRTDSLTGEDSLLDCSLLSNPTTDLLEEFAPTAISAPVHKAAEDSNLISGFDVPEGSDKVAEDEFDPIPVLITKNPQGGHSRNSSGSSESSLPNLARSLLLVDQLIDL

Point of comparison: CC(C)n1nnc(-c2cc(O)cc(Nc3ncnn4ccc(CN5CCC(N)CC5)c34)c2)n1 [Example 36, 3-((5-((4-aminopiperidin-1-yl)methyl)pyrrolo[2,1-f][1,2,4]triazin-4-yl)amino)-5-(2-isopropyl-2H-tetrazol-5-yl)phenol], pIC50 8.48. Against it:
- CC(C)c1nc(-c2ccc(Cl)c(Nc3ncnn4ccc(CN5CCC(N)CC5)c34)c2)no1 [Example 43, 5-((4-aminopiperidin-1-yl)methyl)-N-(2-chloro-5-(5-isopropyl-1,2,4-oxadiazol-3-yl)phenyl)pyrrolo[2,1-f][1,2,4]triazin-4-amine] — 1.90 log units lower, 6.58
- CNC1CCN(Cc2ccn3ncnc(Nc4cc(F)cc(-c5noc(C(C)C)n5)c4)c23)CC1 [Example 44, N-(3-fluoro-5-(5-isopropyl-1,2,4-oxadiazol-3-yl)phenyl)-5-((4-(methylamino)piperidin-1-yl)methyl)pyrrolo[2,1-f][1,2,4]triazin-4-amine] — 0.48 log units lower, 8.00
- CC(C)n1nnc(-c2cc(Nc3ncnn4ccc(CN5CCC(N)CC5)c34)ccc2F)n1 [Example 49, 5-((4-aminopiperidin-1-yl)methyl)-N-(4-fluoro-3-(2-isopropyl-2H-tetrazol-5-yl)phenyl)pyrrolo[2,1-f][1,2,4]triazin-4-amine] — 0.80 log units lower, 7.68
- CC(C)n1nnc(-c2cccc(Nc3ncnn4ccc(CN5[C@@H]6CC[C@H]5CC(O)C6)c34)c2)n1 (stereo partly drawn) [Example 59, (1R,5S)-8-((4-((3-(2-isopropyl-2H-tetrazol-5-yl)phenyl)amino)pyrrolo[2,1-f][1,2,4]triazin-5-yl)methyl)-8-azabicyclo[3.2.1]octan-3-ol] — 1.59 log units lower, 6.89
- CC(C)n1nnc(-c2cccc(NCc3ccn4ncnc(Nc5cccc(-c6nnn(C(C)C)n6)c5)c34)c2)n1 [Example 61, N-(3-(2-isopropyl-2H-tetrazol-5-yl)phenyl)-5-(((3-(2-isopropyl-2H-tetrazol-5-yl)phenyl)amino)methyl)pyrrolo[2,1-f][1,2,4]triazin-4-amine] — 2.89 log units lower, 5.59
- CC(C)n1nnc(-c2cccc(Nc3ncnn4ccc(CN5CCC(C#N)CC5)c34)c2)n1 [Example 65, 1-((4-((3-(2-isopropyl-2H-tetrazol-5-yl)phenyl)amino)pyrrolo[2,1-f][1,2,4]triazin-5-yl)methyl)piperidine-4-carbonitrile] — 1.34 log units lower, 7.14
- CC(C)n1nnc(-c2cccc(Nc3ncnn4ccc(CNCC#N)c34)c2)n1 [Example 66, 2-(((4-((3-(2-isopropyl-2H-tetrazol-5-yl)phenyl)amino)pyrrolo[2,1-f][1,2,4]triazin-5-yl)methyl)amino)acetonitrile] — 2.52 log units lower, 5.96

Same assay, conditions: ATP 22 μM; 3 hours at room temperature; listed as IC50 ranges

Compared with CC(C)c1nnc(-c2cccc(Nc3ncnn4ccc(CN5CCNCC5)c34)c2)s1 [Example 35, N-(3-(5-isopropyl-1,3,4-thiadiazol-2-yl)phenyl)-5-(piperazin-1-ylmethyl)pyrrolo[2,1-f][1,2,4]triazin-4-amine], CC(C)c1nnc(-c2cccc(Nc3ncnn4ccc(CN5CCOCC5)c34)c2)s1 [Example 56, N-(3-(5-isopropyl-1,3,4-thiadiazol-2-yl)phenyl)-5-(morpholinomethyl)pyrrolo[2,1-f][1,2,4]triazin-4-amine] is lower in pIC50: 6.00 to 7.00 for the first, 5.30 to 6.00 for the second.

Compared with CC(C)c1nc(-c2cc(O)cc(Nc3ncnn4ccc(CN5CCC(N)CC5)c34)c2)no1 [Example 37, 3-((5-((4-aminopiperidin-1-yl)methyl)pyrrolo[2,1-f][1,2,4]triazin-4-yl)amino)-5-(5-isopropyl-1,2,4-oxadiazol-3-yl)phenol], CC(C)c1nc(-c2cc(Cl)cc(Nc3ncnn4ccc(CN5CCC(N)CC5)c34)c2)no1 [Example 45, 5-((4-aminopiperidin-1-yl)methyl)-N-(3-chloro-5-(5-isopropyl-1,2,4-oxadiazol-3-yl)phenyl)pyrrolo[2,1-f][1,2,4]triazin-4-amine] is lower in pIC50: 8.00 to 9.00 for the first, 7.00 to 8.00 for the second.

First: CC(C)n1nnc(-c2ccc(O)c(Nc3ncnn4ccc(CN5CCC(N)CC5)c34)c2)n1 [Example 38, 2-((5-((4-aminopiperidin-1-yl)methyl)pyrrolo[2,1-f][1,2,4]triazin-4-yl)amino)-4-(2-isopropyl-2H-tetrazol-5-yl)phenol]
Second: CC(C)n1nnc(-c2ccc(F)c(Nc3ncnn4ccc(CN5CCC(N)CC5)c34)c2)n1 [Example 50, 5-((4-aminopiperidin-1-yl)methyl)-N-(2-fluoro-5-(2-isopropyl-2H-tetrazol-5-yl)phenyl)pyrrolo[2,1-f][1,2,4]triazin-4-amine]
The pIC50 of the first is higher: 8.00 to 9.00 for the first, 6.00 to 7.00 for the second.

CNC1CCN(Cc2ccn3ncnc(Nc4cccc(-c5noc(C(C)C)n5)c4)c23)CC1 [Example 39, N-(3-(5-isopropyl-1,2,4-oxadiazol-3-yl)phenyl)-5-((4-(methylamino)piperidin-1-yl)methyl)pyrrolo[2,1-f][1,2,4]triazin-4-amine] and CNC1CCN(Cc2ccn3ncnc(Nc4cccc(-c5noc(C(C)(C)C)n5)c4)c23)CC1 [Example 41, N-(3-(5-(tert-butyl)-1,2,4-oxadiazol-3-yl)phenyl)-5-((4-(methylamino)piperidin-1-yl)methyl)pyrrolo[2,1-f][1,2,4]triazin-4-amine] fall in the same range of pIC50: 7.00 to 8.00 for the first, 7.00 to 8.00 for the second.

CNC1CCN(Cc2ccn3ncnc(Nc4cccc(-c5nnc(C(C)C)o5)c4)c23)CC1 [Example 40, N-(3-(5-isopropyl-1,3,4-oxadiazol-2-yl)phenyl)-5-((4-(methylamino)piperidin-1-yl)methyl)pyrrolo[2,1-f][1,2,4]triazin-4-amine] and CNC1CCN(Cc2ccn3ncnc(Nc4cccc(-c5nnn(C(C)C)n5)c4)c23)CC1 [Example 42, N-(3-(2-isopropyl-2H-tetrazol-5-yl)phenyl)-5-((4-(methylamino)piperidin-1-yl)methyl)pyrrolo[2,1-f][1,2,4]triazin-4-amine] fall in the same range of pIC50: 7.00 to 8.00 for the first, 7.00 to 8.00 for the second.

Compared with CC(C)c1nc(-c2cc(F)cc(Nc3ncnn4ccc(CN5CCC(N)CC5)c34)c2)no1 [Example 46, 5-((4-aminopiperidin-1-yl)methyl)-N-(3-fluoro-5-(5-isopropyl-1,2,4-oxadiazol-3-yl)phenyl)pyrrolo[1,2-f][1,2,4]triazin-4-amine], CC(C)c1nc(-c2ccc(F)c(Nc3ncnn4ccc(CN5CCC(N)CC5)c34)c2)no1 [Example 52, 5-((4-aminopiperidin-1-yl)methyl)-N-(2-fluoro-5-(5-isopropyl-1,2,4-oxadiazol-3-yl)phenyl)pyrrolo[2,1-f][1,2,4]triazin-4-amine] is lower in pIC50: 7.00 to 8.00 for the first, 6.00 to 7.00 for the second. The first is the more potent here.

Compared with NC1CCN(Cc2ccn3ncnc(Nc4cccc(-c5noc(C6CC6)n5)c4)c23)CC1 [Example 47, 5-((4-aminopiperidin-1-yl)methyl)-N-(3-(5-cyclopropyl-1,2,4-oxadiazol-3-yl)phenyl)pyrrolo[2,1-f][1,2,4]triazin-4-amine], CC(C)n1nnc(-c2cc(F)cc(Nc3ncnn4ccc(CN5CCC(N)CC5)c34)c2)n1 [Example 51, 5-((4-aminopiperidin-1-yl)methyl)-N-(3-fluoro-5-(2-isopropyl-2H-tetrazol-5-yl)phenyl)pyrrolo[2,1-f][1,2,4]triazin-4-amine] is higher in pIC50: 7.00 to 8.00 for the first, 8.00 to 9.00 for the second. The second is the more potent here.

CC(C)c1nnc(-c2cccc(Nc3ncnn4ccc(CN5CC[C@@H](N)[C@H](O)C5)c34)c2)s1 [Example 48, (3R,4R)-4-amino-1-((4-((3-(5-isopropyl-1,3,4-thiadiazol-2-yl)phenyl)amino)pyrrolo[2,1-f][1,2,4]triazin-5-yl)methyl)piperidin-3-ol] and CC(=O)NC1CCN(Cc2ccn3ncnc(Nc4cccc(-c5nnc(C(C)C)s5)c4)c23)CC1 [Example 53, N-(1-((4-((3-(5-isopropyl-1,3,4-thiadiazol-2-yl)phenyl)amino)pyrrolo[2,1-f][1,2,4]triazin-5-yl)methyl)piperidin-4-yl)acetamide] fall in the same range of pIC50: 7.00 to 8.00 for the first, 7.00 to 8.00 for the second.

First: CC(C)n1nnc(-c2cccc(Nc3ncnn4ccc(CN5CCN(C)CC5)c34)c2)n1 [Example 54, N-(3-(2-isopropyl-2H-tetrazol-5-yl)phenyl)-5-((4-methylpiperazin-1-yl)methyl)pyrrolo[2,1-f][1,2,4]triazin-4-amine]
Second: CC(C)n1nnc(-c2cccc(Nc3ncnn4ccc(CN5CCOCC5)c34)c2)n1 [Example 57, N-(3-(2-isopropyl-2H-tetrazol-5-yl)phenyl)-5-(morpholinomethyl)pyrrolo[2,1-f][1,2,4]triazin-4-amine]
The pIC50 of the first is lower: 6.00 to 7.00 for the first, 7.00 to 8.00 for the second. The second is the more potent here.

CC(C)c1nnc(-c2cccc(Nc3ncnn4ccc(CN5CCN(C)CC5)c34)c2)s1 [Example 55, N-(3-(5-isopropyl-1,3,4-thiadiazol-2-yl)phenyl)-5-((4-methylpiperazin-1-yl)methyl)pyrrolo[2,1-f][1,2,4]triazin-4-amine] and CC(C)n1nnc(-c2cccc(Nc3ncnn4ccc(CN5CC(C#N)C5)c34)c2)n1 [Example 64, 1-((4-((3-(2-isopropyl-2H-tetrazol-5-yl)phenyl)amino)pyrrolo[2,1-f][1,2,4]triazin-5-yl)methyl)azetidine-3-carbonitrile] fall in the same range of pIC50: 6.00 to 7.00 for the first, 6.00 to 7.00 for the second.

Compared with CC(C)n1nnc(-c2cccc(Nc3ncnn4ccc(CNC5CC6CCC(C5)N6C)c34)c2)n1 (centres unmarked) [Example 58, N-(3-(2-isopropyl-2H-tetrazol-5-yl)phenyl)-5-((8-methyl-8-azabicyclo[3.2.1]octan-3-ylamino)methyl)pyrrolo[1,2-f][1,2,4]triazin-4-amine], CC(C)n1nnc(-c2cccc(Nc3ncnn4ccc(CN5[C@@H]6CC[C@H]5CN(C)C6)c34)c2)n1 [Example 60, N-(3-(2-isopropyl-2H-tetrazol-5-yl)phenyl)-5-(((1R,5S)-3-methyl-3,8-diazabicyclo[3.2.1]octan-8-yl)methyl)pyrrolo[2,1-f][1,2,4]triazin-4-amine] is higher in pIC50: 5.30 to 6.00 for the first, 6.00 to 7.00 for the second. The second is the more potent here.

CC(C)Oc1cc(Nc2ncnn3ccc(CN4CCC(N)CC4)c23)cc(-c2nnn(C(C)C)n2)c1 [Example 62, 5-((4-aminopiperidin-1-yl)methyl)-N-(3-isopropoxy-5-(2-isopropyl-2H-tetrazol-5-yl)phenyl)pyrrolo[2,1-f][1,2,4]triazin-4-amine] and CNCc1ccn2ncnc(Nc3cccc(-c4nnn(C(C)C)n4)c3)c12 [Example 63, N-(3-(2-isopropyl-2H-tetrazol-5-yl)phenyl)-5-((methylamino)methyl)pyrrolo[2,1-f][1,2,4]triazin-4-amine] fall in the same range of pIC50: 6.00 to 7.00 for the first, 6.00 to 7.00 for the second.
